Converted amounts (≈) assume the structure as drawn.
Columns and labels:
human mGlu5a receptor = molecular target: T1, human mGlu5a receptor (Homo sapiens, UniProt P41594); assay: Intracellular Ca2+ mobilization assay (mGlu5 PAM); type: cell-based; details: HEK-293 cells expressing human mGlu5a; L-glutamate at EC20
T1 construct: expressed in transfected cells; host or cells: HEK-293 (monoclonal, stably transfected)
Procedure: A monoclonal HEK-293 cell line stably transfected with a cDNA encoding for the human mGlu5a receptor was generated; for the work with mGlu5 Positive Allosteric Modulators (PAMs), a cell line with low receptor expression levels and low constitutive receptor activity was selected to allow the differentiation of agonistic versus PAM activity. Cells were cultured according to standard protocols (Freshney, 2000) in Dulbecco's Modified Eagle Medium with high glucose supplemented with 1 mM glutamine, 10% (vol/vol) heat-inactivated bovine calf serum, Penicillin/Streptomycin, 50 μg/ml hygromycin and 15 μg/ml blasticidin (all cell culture reagents and antibiotics from Invitrogen, Basel, Switzerland).
About 24 hrs before an experiment, 5×10^4 cells/well were seeded in poly-D-lysine coated, black/clear-bottomed 96-well plates. The cells were loaded with 2.5 μM Fluo-4AM in loading buffer (1×HBSS, 20 mM HEPES) for 1 hr at 37° C. and washed five times with loading buffer. The cells were transferred into a Functional Drug Screening System 7000 (Hamamatsu, Paris, France), and 11 half logarithmic serial dilutions of test compound at 37° C. were added and the cells were incubated for 10-30 min. with on-line recording of fluorescence. Following this pre-incubation step, the agonist L-glutamate was added to the cells at a concentration corresponding to EC20 (typically around 80 μM) with on-line recording of fluorescence; in order to account for day-to-day variations in the responsiveness of cells, the EC20 of glutamate was determined immediately ahead of each experiment by recording of a full dose-response curve of glutamate.
Responses were measured as peak increase in fluorescence minus basal (i.e. fluorescence without addition of L-glutamate), normalized to the maximal stimulatory effect obtained with saturating concentrations of L-glutamate. Graphs were plotted with the % maximal stimulatory using XLfit, a curve fitting program that iteratively plots the data using Levenburg Marquardt algorithm. The single site competition analysis equation used was y=A+((B−A)/(1+((x/C)D))), where y is the % maximal stimulatory effect, A is the minimum y, B is the maximum y, C is the EC50, x is the log 10 of the concentration of the competing compound and D is the slope of the curve (the Hill Coefficient). From these curves the EC50 (concentration at which half maximal stimulation was achieved), the Hill coefficient as well as the maximal response in % of the maximal stimulatory effect obtained with saturating concentrations of L-glutamate were calculated.
A depression of the signal observed after addition of the EC20 concentration of L-glutamate was indicative of an inhibitory activity of the test compound.

[1] = Spontaneous Glutathione (GSH) Addition Assay; set-up: key: Samples for which the mass of a covalent adduct was clearly detected (M+307) are indicated as FLAG (positive); Compounds for which no adduct was detected are designated NO FLAG (negative); details: 10 μM test substance, 5 mM GSH, pH 7.4 phosphate buffer, 24 hours, room temperature; adduct by MS
Procedure: 10 μM of test substance dissolved in pH 7.4 phosphate buffer was incubated with 5 mM GSH (glutathione) for 24 hours at room temperature. The samples were then analyzed using a mass spectrometer to determine whether adducts between glutathione and the drug had been formed. Samples for which the mass of a covalent adduct was clearly detected (M+307) are indicated as FLAG (positive). Compounds for which no adduct was detected are designated NO FLAG (negative).

[2] = Lyophilisation Solubility Assay (LYSA); type: physicochemical; details: aqueous buffer, thermodynamic from solid, 0.05 M phosphate buffer pH 6.5
Procedure: The procedure of this automatic high throughput assay can be separated into two steps. First, DMSO stock solutions of test compounds are diluted in order to prepare four point calibration curves. The peak area at an optimal wavelength for each test compound is determined automatically by Ultra Fast Liquid Chromatography. The extraction of peak areas and retention times from the raw data is performed automatically. Using four concentrations and the related peak areas, slope and intercept of the calibration line is calculated. The correlation coefficient of the obtained regression line should be greater than 0.99. In the second phase, the sample solutions are prepared in duplicate from the DMSO stock solutions. The DMSO was removed using an evaporator. After evaporation of the DMSO, the solid drugs were solved in 0.05 M phosphate buffer (pH 6.5), stirred for one hour and afterwards shaken for two hours. After standing overnight (about 20 hours), the solutions are filtered using a microtiter filter plate. The filtrate and its 1/10 dilutions are then analyzed automatically by High Performance Liquid Chromatography (HPLC). The peak areas and retention times of the samples were extracted at the same wavelength used for the calibration.
The solubility is calculated using the following equation: S=(A−b)/a(×10 for the sample diluted 1/10)
Where S is the solubility in μg/mL; A is the peak area of the sample; a is the slope and b is the intercept of the calibration curve.

[3] = Solubility by 24 h equilibration in phosphate buffer, manual conventional HPLC (reference compound 106); type: physicochemical; details: aqueous buffer, thermodynamic from solid, equilibrated 24 h in 0.05 M phosphate buffer pH 6.5
Procedure: In the case of reference compound 106, the compound was equilibrated for 24 h in 0.05 M phosphate buffer (pH 6.5) using a procedure identical to that performed with the LYSA assay. The amount of solute present was then directly determined using manual conventional HPLC analytics.

T1 sequence (P41594 21-1180 isoform P41594-2 limits assumed): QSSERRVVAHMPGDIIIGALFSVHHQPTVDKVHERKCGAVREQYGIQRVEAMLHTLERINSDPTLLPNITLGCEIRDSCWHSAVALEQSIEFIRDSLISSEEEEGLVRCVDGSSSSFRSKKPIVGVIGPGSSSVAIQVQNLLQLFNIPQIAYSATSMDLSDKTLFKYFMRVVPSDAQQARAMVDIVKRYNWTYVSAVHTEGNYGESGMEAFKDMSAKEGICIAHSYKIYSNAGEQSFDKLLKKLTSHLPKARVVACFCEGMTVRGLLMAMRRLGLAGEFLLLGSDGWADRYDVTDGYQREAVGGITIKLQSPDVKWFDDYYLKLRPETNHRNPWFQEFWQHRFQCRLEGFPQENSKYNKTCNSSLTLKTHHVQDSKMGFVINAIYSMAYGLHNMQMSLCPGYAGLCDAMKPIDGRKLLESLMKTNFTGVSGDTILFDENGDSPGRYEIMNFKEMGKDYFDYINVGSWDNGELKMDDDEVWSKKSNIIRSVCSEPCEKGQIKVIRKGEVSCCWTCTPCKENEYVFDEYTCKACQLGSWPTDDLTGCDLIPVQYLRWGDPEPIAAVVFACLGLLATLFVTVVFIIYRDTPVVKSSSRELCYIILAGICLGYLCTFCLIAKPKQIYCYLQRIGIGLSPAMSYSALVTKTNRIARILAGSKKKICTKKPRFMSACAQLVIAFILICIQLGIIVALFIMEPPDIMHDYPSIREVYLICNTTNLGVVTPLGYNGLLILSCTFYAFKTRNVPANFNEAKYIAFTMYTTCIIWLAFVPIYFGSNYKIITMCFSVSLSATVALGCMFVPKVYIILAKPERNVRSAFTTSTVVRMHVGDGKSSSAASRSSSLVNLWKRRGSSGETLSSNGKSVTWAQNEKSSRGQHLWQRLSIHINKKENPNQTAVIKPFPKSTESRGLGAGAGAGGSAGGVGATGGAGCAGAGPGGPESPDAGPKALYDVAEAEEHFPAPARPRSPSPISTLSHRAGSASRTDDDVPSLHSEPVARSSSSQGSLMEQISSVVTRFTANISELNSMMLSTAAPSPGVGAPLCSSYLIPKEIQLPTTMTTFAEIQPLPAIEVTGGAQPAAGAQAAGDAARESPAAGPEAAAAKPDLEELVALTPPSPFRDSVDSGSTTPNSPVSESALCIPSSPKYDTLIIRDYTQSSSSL

EC50 (human mGlu5a receptor) [nM]	GSH assay [1]	solubility [2] [µg/mL]	Compound	solubility at 24 h [3] [µg/mL]
35	NO FLAG	56 (≈ 142 µM)	COCCCN1C(=O)N(c2ncc(C#Cc3ccc(F)cc3)cn2)[C@@H]2CCC[C@@H]21 [Example 11]	
15.7	NO FLAG	75 (≈ 188 µM)	COCCN1C(=O)N(c2ncc(C#Cc3cc(F)ccc3F)cn2)[C@@H]2CCC[C@@H]21 [Example 8]	
24.5	NO FLAG	114 (≈ 300 µM)	COCCN1C(=O)N(c2ncc(C#Cc3cccc(F)c3)cn2)[C@@H]2CCC[C@@H]21 [Example 6]	
8.1	FLAG	2 (≈ 6.28 µM)	CN1C(=O)N(c2ccc(C#Cc3ccccc3)nn2)[C@@H]2CCC[C@@H]21 [Ref. 1 Ex. 170, reference compound]	
31.6	NO FLAG	115 (≈ 292 µM)	COCCCN1C(=O)N(c2ncc(C#Cc3cccc(F)c3)cn2)[C@@H]2CCC[C@@H]21 [Example 10]	
30.9	NO FLAG	153 (≈ 406 µM)	COCCCN1C(=O)N(c2ncc(C#Cc3ccccc3)cn2)[C@@H]2CCC[C@@H]21 [Example 9, (−)-(3aR,6aS)-1-(3-Methoxy-propyl)-3-(5-phenylethynyl-pyrimidin-2-yl)-hexahydro-cyclopentaimidazol-2-one]	
26.8	NO FLAG	43 (≈ 113 µM)	COCCN1C(=O)N(c2ncc(C#Cc3ccc(F)cc3)cn2)[C@@H]2CCC[C@@H]21 [Example 7]	
11.9	FLAG	< 1	CN1C(=O)N(c2ccc(C#Cc3cccc(F)c3)nn2)[C@@H]2CCC[C@@H]21 (racemic) [Ref. 1 Ex. 174, reference compound]	

The next lines start with the compound.

Compound	EC50 (human mGlu5a receptor) [nM]	GSH assay [1]	solubility [2] [µg/mL]	solubility at 24 h [3] [µg/mL]
CCN1C(=O)N(c2ncc(C#Cc3ccc(F)cc3)cn2)[C@@H]2CCC[C@@H]21 [Example 3]	11.5	NO FLAG	4 (≈ 11.4 µM)	
CN1C(=O)N(c2ccc(C#Cc3ccccc3)cn2)[C@@H]2CCC[C@@H]21 [Ref. 1 Ex. 106, reference compound]	8			0.011 (≈ 0.0347 µM)
CCN1C(=O)N(c2ncc(C#Cc3cc(F)ccc3F)cn2)[C@@H]2CCC[C@@H]21 [Example 4]	10	NO FLAG	16 (≈ 43.4 µM)	
CCN1C(=O)N(c2ncc(C#Cc3ccccc3)cn2)[C@@H]2CCC[C@@H]21 [Example 1, (−)-(3aR,6aS)-1-Ethyl-3-(5-phenylethynyl-pyrimidin-2-yl)-hexahydro-cyclopentaimidazol-2-one]	9.1	NO FLAG	8 (≈ 24.1 µM)	
CCN1C(=O)N(c2ncc(C#Cc3cccc(F)c3)cn2)[C@@H]2CCC[C@@H]21 [Example 2]	10.6	NO FLAG	7 (≈ 20 µM)	
COCCN1C(=O)N(c2ncc(C#Cc3ccccc3)cn2)[C@@H]2CCC[C@@H]21 [Example 5, (−)-(3aR,6aS)-1-(2-Methoxy-ethyl)-3-(5-phenylethynyl-pyrimidin-2-yl)-hexahydro-cyclopentaimidazol-2-one]	12.5	NO FLAG	171 (≈ 472 µM)	
